Test results published in ChEMBL document CHEMBL3414460, “Antiprotozoal activity and DNA binding of dicationic acridones” (J Med Chem, 2015).
Values joined by “and” are separate entries in the source; they are usually repeats but may differ in a detail not shown here. Equal entries are not always repeated. Active and inactive are the calls of the source. The rule behind the calls is not given here.

How the values were obtained:
[1] = Binding affinity to fish sperm DNA assessed as hypochromicity after 1 min by UV-Vis spectrophotometry; set-up: concentration or dose not given beside the values
[2] = system: Trypanosoma brucei rhodesiense; assay: Antitrypanosomal activity against Trypanosoma brucei rhodesiense STIB900 infected in NMRI mouse assessed as time duration by measuring mean day of relapse at 20 mg/kg, ip administered for 4 days; format: functional; conditions: route intraperitoneal
[3] = system: Plasmodium falciparum; assay: Antiprotozoal activity against intraerythrocytic stage of chloroquine-sensitive Plasmodium falciparum NF54 by [3H]hypoxanthine incorporation assay; format: functional, organism-based
[4] = system: Trypanosoma brucei rhodesiense; assay: Antiprotozoal activity against bloodstream form of Trypanosoma brucei rhodesiense STIB900 trypomastigote by alamar-blue assay; format: functional, organism-based
[5] = system: Trypanosoma cruzi; assay: Antiprotozoal activity against intracellular amastigote stage of Trypanosoma cruzi Tulahuen C4 by colorimetric assay; format: functional, organism-based
[6] = Selectivity index, ratio of CC50 for rat L6 cells to IC50 for bloodstream form of Trypanosoma brucei rhodesiense STIB900; format: functional
[7] = system: Hyperoartia; assay: Binding affinity to fish sperm DNA by circular dichroism spectroscopy
[8] = system: Trypanosoma brucei rhodesiense; assay: Antitrypanosomal activity against Trypanosoma brucei rhodesiense STIB900 infected in NMRI mouse assessed as cure at 20 mg/kg, ip administered for 4 days; format: functional, organism-based; set-up: dose 20 mg/kg
[9] = system: Leishmania donovani; assay: Antiprotozoal activity against axenic amastigote stage of Leishmania donovani MHOM-ET-67/L82 by alamar-blue assay; format: functional, organism-based
[10] = Selectivity index, ratio of CC50 for rat L6 cells to IC50 for Plasmodium falciparum NF54; format: functional
[11] = (§1) Cytotoxicity against rat L6 cells; format: cell-based; conditions: L6 cells
[12] = system: Plasmodium falciparum; assay: Antiprotozoal activity against intraerythrocytic stage of chloroquine/pyrimethamine-resistant Plasmodium falciparum K1 by [3H]hypoxanthine incorporation assay; format: functional, organism-based
[13] = system: L6; assay: as §1; format: cell-based; conditions: l6
[14] = Selectivity index, ratio of CC50 for rat L6 cells to IC50 for Plasmodium falciparum K1; format: functional
[15] = system: Trypanosoma brucei rhodesiense; assay: Antitrypanosomal activity against Trypanosoma brucei rhodesiense STIB900 infected in NMRI mouse assessed as cure at 50 mg/kg, po administered for 4 days; format: functional, organism-based; set-up: dose 50 mg/kg
[16] = system: Trypanosoma brucei rhodesiense; assay: Antitrypanosomal activity against Trypanosoma brucei rhodesiense STIB900 infected in NMRI mouse assessed as time duration by measuring mean day of relapse at 50 mg/kg, po administered for 4 days; format: functional
[17] = system: Trypanosoma brucei rhodesiense; assay: Antitrypanosomal activity against Trypanosoma brucei rhodesiense STIB900 infected in NMRI mouse assessed as time duration by measuring mean day of relapse at 5 mg/kg, ip administered for 4 days; format: functional; conditions: route intraperitoneal
[18] = system: Mus musculus; assay: Toxicity in NMRI mouse infected with Trypanosoma brucei rhodesiense STIB900 at 20 mg/kg, ip administered for 4 days; format: organism-based; set-up: dose 20 mg/kg, route intraperitoneal; conditions: in vivo, 96 h
[19] = system: Hyperoartia; assay: Binding affinity to fish sperm DNA assessed as reduction in positive band at compound/DNA ratio 1 to 2 by circular dichroism spectroscopy
[20] = system: Hyperoartia; assay: Binding affinity to fish sperm DNA assessed as weak negative band at compound/DNA ratio 1 to 2 by circular dichroism spectroscopy
[21] = system: Trypanosoma brucei rhodesiense; assay: Antitrypanosomal activity against Trypanosoma brucei rhodesiense STIB900 infected in NMRI mouse assessed as cure at 5 mg/kg, ip administered for 4 days; format: functional, organism-based; set-up: dose 5 mg/kg
[22] = system: Hyperoartia; assay: Binding affinity to fish sperm DNA assessed as positive band of unvarying intensity at compound/DNA ratio 0.5 to 0.6 by circular dichroism spectroscopy

Structure (SMILES) | Activity [1] | IC50 ([4]; Trypanosoma brucei, STIB900) [µM] | IC50 [5] [µM] | Ratio CC50/IC50 [6] | IC50 [9] [µM] | CC50 [11] [µM] | IC50 [12] [µM] | further results
Cl.Cl.O=c1c2ccc(NC3=NCCN3)cc2[nH]c2ccc(NC3=NCCN3)cc12 | 47% | 0.007 | > 230 | 15257 | 73 | 107 | – | Time [2]: >50 days; IC50 ([3]; Plasmodium falciparum, NF54): 0.83 µM; Activity [7]: Active; Activity [8]: Active; Ratio CC50/IC50 [10]: 128
Nc1ccc2[nH]c3ccc(N)cc3c(=O)c2c1 | – | 2.9 | 149 | – | 321 | 75 | 2.5 | –
O=C(O)C(F)(F)F.O=C(O)C(F)(F)F.O=c1c2ccc(NC3=NCCN3)cc2[nH]c2cc(NC3=NCCN3)ccc12 | – | 0.06 | – | 1647 | – | – | – | IC50 [3]: 0.09 µM; Ratio CC50/IC50 [10]: 1149; CC50 [13]: 99 µM
Nc1cccc(Nc2ccc([N+](=O)[O-])cc2C(=O)O)c1 | – | 124 | 271 | – | 61 | 266 | 70 | –
O=C(O)C(F)(F)F.O=C(O)C(F)(F)F.O=C1c2ccc(NC3=NCCN3)cc2C(=O)c2ccc(NC3=NCCN3)cc21 | 46% | 2.3 | 104 | – | 145 | 75 | 0.06 | Ratio CC50/IC50 [14]: 1229; Activity [7]: Active; Activity [8]: Active
Cn1c2ccc(NC3=NCCN3)cc2c(=O)c2cc(NC3=NCCN3)ccc21.O=C(O)C(F)(F)F.O=C(O)C(F)(F)F | 48% | 0.007 | – | 14843 | – | 104 | – | IC50 ([3]; Plasmodium falciparum, NF54): 0.22 µM; Ratio CC50/IC50 [10]: 468
CCCCCCCCCCCCCCCCOP(=O)([O-])OCC[N+](C)(C)C [MILTEFOSINE] | – | – | – | – | 0.45 | – | – | –
Cl.Cl.O=c1c2cc(NC3=NCCN3)ccc2[nH]c2ccc(NC3=NCCN3)cc12 | 49% | 0.069 | > 230 | >3333 | 177 | > 230 | 0.34 | Time [2]: >45.5 days; Ratio CC50/IC50 [14]: >666; Activity [15]: inactive; Activity [8]: Active; Time [16]: 22 days
Nc1ccc2c(=O)c3cc(N)ccc3[nH]c2c1 | – | 19.2 | 269 | – | 288 | 23 | 4.8 | –
COc1cc([C@@H]2c3cc4c(cc3[C@H](O)[C@H]3COC(=O)[C@H]23)OCO4)cc(OC)c1OC [PODOFILOX] | – | – | – | – | – | 0.012 | – | –
CC(C)(C)OC(=O)N1CCN(C(=O)OC(C)(C)C)C1=Nc1ccc2[nH]c3ccc(N=C4N(C(=O)OC(C)(C)C)CCN4C(=O)OC(C)(C)C)cc3c(=O)c2c1 | – | 2.2 | 50 | – | > 127 | 73 | 33 | –
Cl.Cl.O=c1c2ccc(NC3=NCCN3)cc2[nH]c2cc(NC3=NCCN3)ccc12 | – | – | > 230 | 2210 | 113 | 137 | – | IC50 [3]: 0.25 µM; IC50 [4]: 0.062 µM; Time [17]: 14 days; Ratio CC50/IC50 [10]: 546; Activity [18]: Non-toxic
O=c1c2ccc(NC3=NCCN3)cc2[nH]c2cc(NC3=NCCN3)ccc12 | 40% and 35% | – | – | – | – | – | – | Activity [19]: Active; Activity [20]: Active; Activity [7]: Active; Activity [21]: inactive; Activity [22]: Active
Nc1ccc2[nH]c3ccc([N+](=O)[O-])cc3c(=O)c2c1 | – | 19.5 | 287 | – | 77 | 186 | 49 | –
Nc1ccc(Nc2ccc([N+](=O)[O-])cc2C(=O)O)cc1 | – | 55 | 292 | – | 23 | > 365 | 52 | –
Nc1ccc2c(=O)c3cc([N+](=O)[O-])ccc3[nH]c2c1 | – | 67 | 279 | – | 291 | 147 | 34 | –
Cn1c2ccc(NC3=NCCN3)cc2c(=O)c2ccc(NC3=NCCN3)cc21.O=C(O)C(F)(F)F.O=C(O)C(F)(F)F | 50% | 0.008 | – | 12287 | – | 98 | – | IC50 ([3]; Plasmodium falciparum, NF54): 0.56 µM; Ratio CC50/IC50 [10]: 175
